The values below come from ChEMBL document CHEMBL2010743, “Adamantyl N-benzylbenzamide: new series of depigmentation agents with tyrosinase inhibitory activity” (Bioorg Med Chem Lett, 2012).

What is called IC50 is the point on the concentration scale where inhibition reaches its midpoint. For orientation: inhibition means the percentage by which the read-out fell short of the control.

The structures appear in SMILES notation.

The target in one data set is T1, Tyrosinase (Agaricus bisporus, UniProt O42713).
T1 sequence (O42713 whole entry): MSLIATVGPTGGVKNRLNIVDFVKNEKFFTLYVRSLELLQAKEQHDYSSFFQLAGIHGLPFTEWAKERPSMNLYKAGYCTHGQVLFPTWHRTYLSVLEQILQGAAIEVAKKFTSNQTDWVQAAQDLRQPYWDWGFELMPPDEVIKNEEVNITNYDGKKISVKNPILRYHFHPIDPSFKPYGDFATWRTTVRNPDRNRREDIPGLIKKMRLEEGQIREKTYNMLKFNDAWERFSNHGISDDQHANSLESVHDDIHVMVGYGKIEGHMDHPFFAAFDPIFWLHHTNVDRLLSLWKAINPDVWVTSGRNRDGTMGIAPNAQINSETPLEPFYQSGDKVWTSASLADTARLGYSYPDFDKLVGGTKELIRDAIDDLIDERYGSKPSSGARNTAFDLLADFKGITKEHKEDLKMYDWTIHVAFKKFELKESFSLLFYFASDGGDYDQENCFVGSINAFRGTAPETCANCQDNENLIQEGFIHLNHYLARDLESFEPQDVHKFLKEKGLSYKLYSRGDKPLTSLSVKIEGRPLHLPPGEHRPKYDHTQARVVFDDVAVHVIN
The experiment in a line: Inhibition of mushroom tyrosinase.

Data set [1] has as its system B16. The experiment in a line: Ratio of kojic acid IC50 to compound IC50 for inhibition of melanogenesis in mouse B16 cells. The class given is functional.
The subject of data set [2] is B16. The experiment in a line: cells. The note with it: Mus musculus.
The next data set is described as follows: in vitro. The note with it: mouse, B16 cells.
Data set [3] deals with T2, Tyrosinase (Agaricus bisporus) (UniProt O42713).
T2 sequence (whole entry): T1 sequence (O42713 whole entry)
In words: Ratio of kojic acid IC50 to compound IC50 for mushroom tyrosinase.

Data set [4] relates to B16. The experiment in a line: Antimelanogenic activity in mouse B16 cells assessed as inhibition of melanogenesis at 1 uM. In kind it is functional.
The nature of data set [5]: Cytotoxicity in mouse B16 cells assessed as cell viability at 1 uM after 72 hrs. In kind it is cell-based. The note with it: read-out: Activity.
Data set [6] deals with B16. In words: Antimelanogenic activity in mouse B16 cells assessed as inhibition of melanogenesis at 3 uM. The class given is functional.
The target of data set [7] is T2, Tyrosinase (Agaricus bisporus). In words: Inhibition of mushroom tyrosinase at 1 uM.

Description for in vitro: Cytotoxicity in mouse B16 cells assessed as cell viability at 10 uM after 72 hrs

Turning to `COc1cc(OC)c(C23CC4CC(CC(C4)C2)C3)cc1C(=O)NCc1ccc(O)cc1O`, the IC50 is 900 nM against Tyrosinase and 1100 nM in the data set on B16 [2]. Also, in the data set with B16 [1], the “Ratio IC50” value is 200. In “in vitro”, this compound came in with a viability at 72 h, 10 µM of 95%.

As to `COc1ccc(C(=O)NCc2ccc(O)cc2O)c(OC)c1`, the IC50 against Tyrosinase worked out at 400 nM; in the data set on B16 [2], 14200 nM. Also, the Ratio IC50 in data set [3] came to 30. This compound also had a viability at 72 h, 10 µM in the data set “in vitro” of 100%.

Take `COc1ccc(C(=O)NCc2ccc(O)cc2O)c(O)c1`: the IC50 against Tyrosinase was 300 nM; in the data set with B16 [2] it was 27600 nM. Besides, in [3], the Ratio IC50 came to 30. Further, in “in vitro”, the viability at 72 h, 10 µM stood at 96%.

`O=C(NCc1ccc(O)cc1O)c1cc(C23CC4CC(CC(C4)C2)C3)c(O)cc1O`: the midpoint of inhibition against Tyrosinase, the IC50, lay at 1100 nM. Further, the inhibition at 1 µM in the data set on B16 [4] was less than 5%. For the same compound, the viability at 72 h, 1 µM in data set [5] was 86%. Moreover, the inhibition at 3 µM in the data set with B16 [6] came out at 90%. This compound displayed a viability at 72 h, 10 µM in “in vitro” of 62%.

In the case of `O=C(NCc1ccc(O)cc1O)c1ccc(O)cc1O`, the IC50 at Tyrosinase was determined as 900 nM; in the data set with B16 [2], 26700 nM. For the same compound, the Ratio IC50 in [3] is 30. Also, in the data set “in vitro”, the viability at 72 h, 10 µM is 100%.

In the case of `COc1cc(O)c(C(=O)NCc2ccc(O)cc2O)cc1C12CC3CC(CC(C3)C1)C2`, the IC50 at Tyrosinase was found to be 800 nM; in the data set on B16 [2], 1800 nM. Besides, the “Ratio IC50” value with B16 [1] stood at 200. Besides, in the data set “in vitro”, the viability at 72 h, 10 µM was determined as 100%.

As for `O=C(NCc1ccc(O)cc1O)c1ccc(O)c(C23CC4CC(CC(C4)C2)C3)c1`, the midpoint of inhibition on Tyrosinase, the IC50, lay at 900 nM. Besides, in the data set with B16 [4], the inhibition at 1 µM is less than 5%. Further, in [5], the viability at 72 h, 1 µM came to 99%. Besides, the viability at 72 h, 10 µM in “in vitro” is 41%.

The compound `CCCCc1ccc(O)cc1O` [RUCINOL] gave an IC50 with B16 [2] of 20000 nM.

As for `O=C(NCc1ccc(O)cc1)c1cc(C23CC4CC(CC(C4)C2)C3)c(O)cc1O`, the inhibition in [7] is less than 5%.

The compound `O=C(NCc1ccccc1O)c1cc(C23CC4CC(CC(C4)C2)C3)c(O)cc1O` had an inhibition in data set [7] of less than 5%.

Consider `COc1ccc(CNC(=O)c2cc(C34CC5CC(CC(C5)C3)C4)c(O)cc2O)c(OC)c1`, for which the inhibition in data set [7] is less than 5%.

The compound `COc1ccc(C(=O)NCc2ccc(O)cc2O)cc1C12CC3CC(CC(C3)C1)C2` returned an IC50 against Tyrosinase of 1400 nM. Moreover, in the data set with B16 [4], the inhibition at 1 µM is less than 5%. Moreover, the viability at 72 h, 1 µM in [5] is 100%. The compound further returned a viability at 72 h, 10 µM in “in vitro” of 44%.
